Assay results reported in patent publication US9695155B2, “Herbicidal substituted pyrimidinyloxy benzene compounds” (E. I. DU PONT DE NEMOURS AND COMPANY, priority 2013, dated 2017).

How the values were obtained:
corn [1] = assay: Test A postemergence; assay type: in vivo, Zea mays; details: for Corn plant response rating (crop injury, 0 = no effect, 100 = complete kill) at 125 g/ha / plant injury at 500 g/ha: Zea mays, post-emergence, 240 h; for plant injury at 500 g/ha: read-out: Plant response rating Corn
Procedure, shortened: (§1)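 Scoring: eye-based comparison with untreated controls, 0 for no effect through 100 for complete control, at about day 10. Treatments: directed soil spray preemergence; foliar spray postemergence on 2–10 cm plants at the one- to two-leaf stage. Medium: loam soil with sand.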

giant foxtail = assay: Test A postemergence; assay type: in vivo, Setaria faberii; details: for pest or weed control at 125 g/ha / pest or weed control at 500 g/ha: Setaria faberi, post-emergence, 240 h; for pest or weed control at 125 g/ha: read-out: Plant response rating, Foxtail, Giant; for pest or weed control at 500 g/ha: read-out: Plant response rating Foxtail, Giant
Procedure, shortened: as §1

lambsquarters = assay: Test C preemergence; assay type: in vivo, Chenopodium album
Excerpt: (§2) Seeds of plant species selected from blackgrass (Alopecurus myosuroides), Italian ryegrass (Lolium multiflorum), wheat, winter (winter wheat, Triticum aestivum), galium (catchweed bedstraw, Galium aparine), corn (Zea mays), large (Lg) crabgrass (Digitaria sanguinalis), giant foxtail (Setaria faberii), johnsongrass (Sorghum halepense), lambsquarters (Chenopodium album), morningglory (Ipomoea coccinea), yellow nutsedge (Cyperus esculentus), pigweed (Amaranthus retroflexus), ragweed (common ragweed, Ambrosia elatior), soybean (Glycine max), barnyardgrass (Echinochloa crus-galli), oilseed rape (Brassica napus), waterhemp (common waterhemp, Amaranthus rudis), kochia (Kochia scoparia), wild oat (Avena fatua), surinam grass (Brachiaria decumbens), foxtail, green (green foxtail, Setaria viridis), goosegrass (Eleusine indica), bromegrass, downy (downy bromegrass, Bromus tectorum), nightshade (eastern black nightshade, Solanum ptycanthum), cocklebur (common cocklebur, Xanthium strumarium), cupgrass, woolly (woolly cupgrass, Eriochloa villosa), bermudagrass (Cynodon dactylon), sunflower, (common oilseed sunflower, Helianthus annuus), Russian thistle (Salsola kali), and velvetleaf (Abutilon theophrasti) were planted into a blend of loam soil and sand and treated preemergence with test chemicals formulated in a non-phytotoxic solvent mixture which included a surfactant.
(§3) At the same time, plants selected from these crop and weed species and also barley, winter (winter barley, Hordeum vulgare), windgrass (Apera spica-venti), chickweed (common chickweed, Stellaria media), deadnettle (henbit deadnettle, Lamium amplexicaule), and canarygrass (littleseed canarygrass, Phalaris minor) were planted in pots containing Redi-Earth® planting medium (Scotts Company, 14111 Scottslawn Road, Marysville, Ohio 43041) comprising spaghnum peat moss, vermiculite, wetting agent and starter nutrients and treated with postemergence applications of test chemicals formulated in the same manner. Plants ranged in height from 2 to 18 cm (1- to 4-leaf stage) for postemergence treatments. Treated plants and controls were maintained in a greenhouse for 13 to 15 days, after which time all species were compared to controls and visually evaluated. Plant response ratings, summarized in Table C, are based on a scale of 0 to 100 where 0 is no effect and 100 is complete control. A dash (-) response means no test result.

large (Lg) crabgrass = assay: Test C preemergence; assay type: in vivo, Digitaria sanguinalis
Excerpt: as §2, §3

corn [2] = assay: Test C preemergence; assay type: in vivo, Zea mays
Excerpt: as §2, §3

pigweed = assay: Test C preemergence; assay type: in vivo, Amaranthus retroflexus
Excerpt: as §2, §3

[3] = 125 g ai/ha, 0 to 100 scale where 0 is no effect and 100 is complete control
[4] = 500 g ai/ha, 0 to 100 scale, 0 no effect, 100 complete control
[5] = 16 g ai/ha, preemergence, scale 0 to 100 (0 no effect, 100 complete control)
[6] = 62 g ai/ha, preemergence, scale 0 (no effect) to 100 (complete control)
[7] = 125 g ai/ha, preemergence, scale 0 (no effect) to 100 (complete control)
[8] = Preemergence, 31 g ai/ha, scale 0 to 100, 0 no effect, 100 complete control
[9] = 500 g ai/ha, 0 to 100 scale where 0 is no effect and 100 is complete control
[10] = 31 g ai/ha, 0 to 100 scale, 0 no effect, 100 complete control

Row | SMILES | Plant response rating, Corn (corn [1]; [3]) | Plant response rating, Foxtail, Giant (giant foxtail; [3]) | Lambsquarters plant response rating (lambsquarters; [5]) | Lambsquarters plant response rating (lambsquarters; [6]) | Lambsquarters plant response rating (lambsquarters; [7]) | Crabgrass, Large plant response rating (large (Lg) crabgrass; [5]) | Crabgrass, Large plant response rating (large (Lg) crabgrass; [6]) | Crabgrass, Large plant response rating (large (Lg) crabgrass; [7]) | Plant response rating, Crabgrass, Large (large (Lg) crabgrass; [8]) | Plant response rating, Corn (corn [1]; [9]) | Corn plant response rating (corn [2]; [5]) | Corn plant response rating (corn [2]; [6]) | Corn plant response rating (corn [2]; [7]) | Plant response rating, Corn (corn [2]; [8]) | Pigweed plant response rating (pigweed; [5]) | Pigweed plant response rating (pigweed; [6]) | Pigweed plant response rating (pigweed; [7]) | Plant response rating, Foxtail, Giant (giant foxtail; [9]) | Corn plant response rating (corn [1]; [3]) | Foxtail, Giant plant response rating (giant foxtail; [3]) | further results
1 | FC(F)(F)c1ccn(-c2ccccc2Oc2ncc(Cl)cn2)n1 [Compound 2, 5-chloro-2-[2-[3-(trifluoromethyl)-1H-pyrazol-1-yl]phenoxy]pyrimidine] | – | – | – | – | – | – | – | – | – | – | – | – | – | – | – | – | – | – | – | – | Corn plant response rating (crop injury, 0 = no effect, 100 = complete kill) at 125 g/ha (corn [1]; [3]): 0%; plant injury at 500 g/ha (corn [1]; [4]): 40%; pest or weed control at 125 g/ha (giant foxtail; [3]): 10%; pest or weed control at 500 g/ha (giant foxtail; [4]): 80%
2 | Clc1cnc(Oc2ccccc2-n2cc(Cl)cn2)nc1 [Compound 3] | 0 | 30 | – | – | – | – | – | – | – | – | – | – | – | – | – | – | – | – | – | – | Plant response rating, Corn (corn [1]; [4]): 40; Plant response rating, Foxtail, Giant (giant foxtail; [4]): 90
3 | FC(F)(F)c1cnn(-c2ccccc2Oc2ncc(Br)cn2)c1 [Compound 18, 5-bromo-2-[2-[4-(trifluoromethyl)-1H-pyrazol-1-yl]phenoxy]pyrimidine] | – | – | – | – | – | – | – | – | – | – | – | – | – | – | – | – | – | – | – | – | pest or weed control at 62 g/ha (lambsquarters; Chenopodium album, pre-emergence, 62 g ai/ha, preemergence, scale 0 (no effect) to 100 (complete control), read-out: Lambsquarters plant response rating): 50%; pest or weed control at 125 g/ha (lambsquarters; Chenopodium album, pre-emergence, 125 g ai/ha, preemergence, scale 0 (no effect) to 100 (complete control), read-out: Lambsquarters plant response rating): 65%; pest or weed control at 250 g/ha (lambsquarters; Chenopodium album, pre-emergence, 250 g ai/ha, preemergence, scale 0 (no effect) to 100 (complete control), read-out: Lambsquarters plant response rating): 80%; pest or weed control at 31 g/ha (lambsquarters; Chenopodium album, pre-emergence, Preemergence, 31 g ai/ha, scale 0 to 100, 0 no effect, 100 complete control, read-out: Plant response rating, Lambsquarters): 30%; pest or weed control at 62 g/ha (large (Lg) crabgrass; Digitaria sanguinalis, pre-emergence, 62 g ai/ha, preemergence, scale 0 (no effect) to 100 (complete control), read-out: Crabgrass, Large plant response rating): 100%; pest or weed control at 125 g/ha (large (Lg) crabgrass; Digitaria sanguinalis, pre-emergence, 125 g ai/ha, preemergence, scale 0 (no effect) to 100 (complete control), read-out: Crabgrass, Large plant response rating): 100%; pest or weed control at 250 g/ha (large (Lg) crabgrass; Digitaria sanguinalis, pre-emergence, 250 g ai/ha, preemergence, scale 0 (no effect) to 100 (complete control), read-out: Crabgrass, Large plant response rating): 100%; pest or weed control at 31 g/ha (large (Lg) crabgrass; Digitaria sanguinalis, pre-emergence, Preemergence, 31 g ai/ha, scale 0 to 100, 0 no effect, 100 complete control, read-out: Plant response rating, Crabgrass, Large): 75%; Corn plant response rating (crop injury, 0 = no effect, 100 = complete kill) at 125 g/ha (corn [1]; [3]): 30%; plant injury at 500 g/ha (corn [1]; [4]): 90%; plant injury at 62 g/ha (corn [2]; Zea mays, pre-emergence, 62 g ai/ha, preemergence, scale 0 (no effect) to 100 (complete control), read-out: Corn plant response rating): 10%; plant injury at 125 g/ha (corn [2]; Zea mays, pre-emergence, 125 g ai/ha, preemergence, scale 0 (no effect) to 100 (complete control), read-out: Corn plant response rating): 10%; plant injury at 250 g/ha (corn [2]; Zea mays, pre-emergence, 250 g ai/ha, preemergence, scale 0 (no effect) to 100 (complete control), read-out: Corn plant response rating): 35%; Corn plant response rating (crop injury, 0 = no effect, 100 = complete kill) at 31 g/ha (corn [2]; Zea mays, pre-emergence, Preemergence, 31 g ai/ha, scale 0 to 100, 0 no effect, 100 complete control): 0%; pest or weed control at 62 g/ha (pigweed; Amaranthus retroflexus, pre-emergence, 62 g ai/ha, preemergence, scale 0 (no effect) to 100 (complete control), read-out: Pigweed plant response rating): 100%; pest or weed control at 125 g/ha (pigweed; Amaranthus retroflexus, pre-emergence, 125 g ai/ha, preemergence, scale 0 (no effect) to 100 (complete control), read-out: Pigweed plant response rating): 100%; pest or weed control at 250 g/ha (pigweed; Amaranthus retroflexus, pre-emergence, 250 g ai/ha, preemergence, scale 0 (no effect) to 100 (complete control), read-out: Pigweed plant response rating): 100%; pest or weed control at 31 g/ha (pigweed; Amaranthus retroflexus, pre-emergence, Preemergence, 31 g ai/ha, scale 0 to 100, 0 no effect, 100 complete control, read-out: Plant response rating, Pigweed): 100%; pest or weed control at 125 g/ha (giant foxtail; [3]): 80%; pest or weed control at 500 g/ha (giant foxtail; [4]): 100%
4 | Fc1cnc(Oc2cccc(C(F)F)c2-n2cc(Br)cn2)nc1 [Compound 112] | 30 | 30 | 98 | 100 | 98 | 35 | 100 | 100 | 100 | 70 | 0 | 5 | 20 | 0 | 100 | 100 | 100 | 90 | – | – | Plant response rating, Lambsquarters (lambsquarters; [8]): 100; Plant response rating, Pigweed (pigweed; [8]): 100
5 | FCc1cccc(Oc2ncc(F)cn2)c1-n1cc(C(F)(F)F)cn1 [Compound 118] | 50 | 80 | 100 | 100 | 100 | 30 | 85 | 100 | 80 | – | 10 | 70 | 85 | 40 | 90 | 100 | 100 | – | – | – | Plant response rating, Lambsquarters (lambsquarters; [8]): 100; Plant response rating, Corn (corn [1]; [10]): 10; Plant response rating, Pigweed (pigweed; [8]): 100; Plant response rating, Foxtail, Giant (giant foxtail; [10]): 30
6 | COc1cnn(-c2c(C#N)cccc2Oc2ncc(Cl)cn2)c1 [Compound 137] | – | – | 100 | 100 | 100 | 10 | 98 | 100 | 70 | 80 | 0 | 5 | 10 | 5 | 75 | 90 | 100 | 100 | 30 | 70 | –
7 | N#Cc1cnn(-c2c(CF)cccc2Oc2ncc(F)cn2)c1 [Compound 151] | – | – | 100 | 100 | 100 | 5 | 98 | 100 | 85 | – | 0 | 15 | 70 | 5 | 100 | 100 | 100 | – | 40 | 40 | Plant response rating, Corn (corn [1]; [10]): 0; Plant response rating, Foxtail, Giant (giant foxtail; [10]): 0
8 | Fc1cccc(Oc2ncc(Cl)cn2)c1-n1cc(I)cn1 [Compound 179] | – | – | 85 | 100 | 100 | 55 | 98 | 100 | 90 | 60 | 0 | 5 | 15 | 5 | 100 | 100 | 100 | 90 | 30 | 80 | –
